Assays:
[1] = biological target: T1, MK2 (Homo sapiens, UniProt P49137); experiment: MK2 degradation in human THP-1 monocytic cells (MSD, 24 h); type: cell-based; parameters: endogenous in cells; key to MK2 MSD THP-1 degradation 24 h GMean External Abs DC50: A (<0.001 μM); B (0.001-0.01 μM); C (0.01-0.1 μM); D (>0.1 μM); —: “-”=not tested or inactive; settings: for Dmax: THP-1, THP-1 cells; for DC50: read-out: MK2 MSD THP-1 degradation 24 h GMean External Abs DC50
Procedure, shortened: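 THP-1 cells (200,000/well) treated 24 h at 37 °C with compound dilution series (up to 10 points, 0.1% DMSO). MK2 in RIPA lysates quantified by MSD sandwich immunoassay. DC50 from 4-parameter logistic fit, DMSO-treated cells as high and lysis buffer as low signal.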

[2] = biological target: T1, MK2; experiment: MK2 degradation in human SW1353 cells (MSD, 24 h); type: cell-based; parameters: endogenous in cells; host or cells: SW-1353 (ATCC HTB-94); settings: for Dmax: read-out: MK2 MSD SW 1353 24 h Dmax %; for DC50: read-out: MK2 MSD SW1353 degradation 24 h GMean External Abs DC50
Procedure, shortened: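 SW1353 chondrosarcoma cells were treated with up to 10-point serial dilutions (0.1% DMSO) for 24 h at 37 °C, then lysed in RIPA buffer. MK2 levels were quantified by MSD sandwich immunoassay; DC50 came from a 4-parameter logistic fit normalised to DMSO-treated cells (high) and lysis buffer (low).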

T1 sequence (P49137 whole entry): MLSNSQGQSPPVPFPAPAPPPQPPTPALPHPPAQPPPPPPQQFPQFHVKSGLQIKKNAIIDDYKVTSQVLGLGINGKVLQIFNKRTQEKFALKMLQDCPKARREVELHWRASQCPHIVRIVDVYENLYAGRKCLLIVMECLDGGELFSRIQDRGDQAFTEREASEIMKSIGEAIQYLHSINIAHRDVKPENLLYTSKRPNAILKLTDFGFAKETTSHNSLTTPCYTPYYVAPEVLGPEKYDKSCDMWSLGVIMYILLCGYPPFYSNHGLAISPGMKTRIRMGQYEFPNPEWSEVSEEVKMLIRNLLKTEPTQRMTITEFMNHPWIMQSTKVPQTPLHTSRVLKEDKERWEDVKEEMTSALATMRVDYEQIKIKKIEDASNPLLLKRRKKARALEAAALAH

Structure (SMILES) | Dmax [1] [%] | DC50 ([1]; THP-1 cells) [nM] | Dmax [2] [%] | DC50 [2] [nM] | MK2 MSD THP-1 degradation 24 h GMean External Abs DC50 ([1]; THP-1 cells)
Cn1c(=O)n(C2CCC(=O)NC2=O)c2ccc(N3CCC(CN4CCN(c5ccc(-c6cc(-c7cc8c([nH]7)C7(CCC7)CNC8=O)ccn6)cn5)CC4)CC3)cc21 (stereo not shown) [Compound I-213] | > 75 | < 1 | > 75 | < 1 | 
C[C@@H]1CNc2c(sc3ccc4nc(-c5ccc(N6CCN(C[C@@H]7CCN(c8ccc9c(c8)n(C)c(=O)n9C8CCC(=O)NC8=O)C7)CC6)cc5)ccc4c23)C(=O)N1 (stereo partly shown) [Compound I-214] | 50 to 75 | 1 to 10 | > 75 | < 1 | 
C[C@@H]1CNc2c(sc3ccc4nc(-c5ccc(N6CCN(CCOc7ccc8c(c7)n(C)c(=O)n8C7CCC(=O)NC7=O)CC6)cc5)ccc4c23)C(=O)N1 (stereo partly shown) [Compound I-215] | 50 to 75 |  | > 75 | < 1 | —
C[C@@H]1CNc2c(sc3ccc4nc(-c5cc(Cl)cc(N6CCN(CC7CCN(c8ccc9c(c8)n(C)c(=O)n9C8CCC(=O)NC8=O)CC7)CC6)c5)ccc4c23)C(=O)N1 (stereo partly shown) [Compound I-216] | > 75 | < 1 | > 75 | 1 to 10 | 
Cc1cc(N2CCN(CC3CCN(c4ccc5c(c4)n(C)c(=O)n5C4CCC(=O)NC4=O)CC3)CC2)ccc1-c1cc(-c2cc3c([nH]2)C2(CC2)CNC3=O)ccn1 (stereo not shown) [Compound I-217] | < 50 | > 100 | < 50 | > 100 | 
Cn1c(=O)n(C2CCC(=O)NC2=O)c2ccc(N3CCC(CN4CCN(c5ccc(-c6cc(-c7cc8c([nH]7)C7(CC7)CNC8=O)ccn6)c(F)c5)CC4)CC3)cc21 (stereo not shown) [Compound I-218] | > 75 | < 1 | > 75 | < 1 | 
C[C@@H]1CNc2c(sc3ccc4nc(-c5cc(N6CCN(CC7CCN(c8ccc9c(c8)n(C)c(=O)n9C8CCC(=O)NC8=O)CC7)CC6)nc(C(C)(C)O)c5)ccc4c23)C(=O)N1 (stereo partly shown) [Compound I-219] | < 50 | > 100 | < 50 | > 100 | 
Cc1cnc(-c2ccnc(C(=O)NCCCCCCc3ccc4c(c3)n(C)c(=O)n4C3CCC(=O)NC3=O)n2)cc1-n1c(C)cc(OCc2ncc(F)cc2F)c(Cl)c1=O (stereo not shown) [Compound I-220] | < 50 | > 100 | < 50 | > 100 | 
C[C@@H]1CNc2c(sc3ccc4nc(-c5ccc(N6CCN(C[C@H]7C[C@@H](c8ccc9c(c8)n(C)c(=O)n9C8CCC(=O)NC8=O)C7)CC6)cc5)ccc4c23)C(=O)N1 (stereo partly shown) [Compound I-221] | > 75 | < 1 | > 75 | < 1 | 
C[C@@H]1CNc2c(sc3ccc4nc(-c5ccc(N6CCN(C[C@H]7C[C@H](c8ccc9c(c8)n(C)c(=O)n9C8CCC(=O)NC8=O)C7)CC6)cc5)ccc4c23)C(=O)N1 (stereo partly shown) [Compound I-222] | > 75 | < 1 | > 75 | < 1 | 
Cn1c(=O)n(C2CCC(=O)NC2=O)c2ccc(N3CCC(CN4CCN(c5cc(-c6ccccc6)cc(-c6cc(-c7cc8c([nH]7)CCNC8=O)ccn6)c5)CC4)CC3)cc21 (stereo not shown) [Compound I-224] | < 50 | > 100 | < 50 | > 100 | 
Cn1c(=O)n(C2CCC(=O)NC2=O)c2ccc(N3CCC(CN4CCN(c5cc(C#N)cc(-c6cc(-c7cc8c([nH]7)CCNC8=O)ccn6)c5)CC4)CC3)cc21 (stereo not shown) [Compound I-225] | < 50 | > 100 | < 50 | > 100 | 
Cn1c(=O)n(C2CCC(=O)NC2=O)c2ccc(N3CCC(CN4CCN(c5ccc(-c6cc(-c7cc8c([nH]7)CCNC8=O)ccn6)c(F)c5)CC4)CC3)cc21 (stereo not shown) [Compound I-226] | > 75 | < 1 | > 75 | < 1 | 
Cc1cc(N2CCN(CC3CCN(c4ccc5c(c4)n(C)c(=O)n5C4CCC(=O)NC4=O)CC3)CC2)ccc1-c1cc(-c2cc3c([nH]2)CCNC3=O)ccn1 (stereo not shown) [Compound I-229] | < 50 | > 100 | < 50 | > 100 | 
CC(C)Oc1cc(-c2ccc3c(ccc4sc5c(c43)NC[C@@H](C)NC5=O)n2)cc(N2CCN(CC3CCN(c4ccc5c(c4)n(C)c(=O)n5C4CCC(=O)NC4=O)CC3)CC2)c1 (stereo partly shown) [Compound I-230] | > 75 | < 1 | > 75 | < 1 | 
CC(C)c1cc(-c2ccc3c(ccc4sc5c(c43)NC[C@@H](C)NC5=O)n2)cc(N2CCN(CC3CCN(c4ccc5c(c4)n(C)c(=O)n5C4CCC(=O)NC4=O)CC3)CC2)c1 (stereo partly shown) [Compound I-231] | > 75 | 1 to 10 | > 75 | 1 to 10 | 
C[C@@H]1CNc2c(sc3ccc4nc(-c5ccc([C@H]6CC[C@H](CN7CCN(c8ccc9c(c8)n(C)c(=O)n9C8CCC(=O)NC8=O)CC7)CC6)nc5)ccc4c23)C(=O)N1 (stereo partly shown) [Compound I-232] | > 75 | < 1 | > 75 | < 1 | 
CCc1cc(-c2ccc3c(ccc4sc5c(c43)NC[C@@H](C)NC5=O)n2)cc(N2CCN(CC3CCN(c4ccc5c(c4)n(C)c(=O)n5C4CCC(=O)NC4=O)CC3)CC2)c1 (stereo partly shown) [Compound I-233] | > 75 | 1 to 10 | > 75 | 1 to 10 | 
Cc1nc(N2CCN(CC3CN(c4ccc5c(c4)n(C)c(=O)n5C4CCC(=O)NC4=O)C3)CC2)ccc1-c1ccc2c(ccc3sc4c(c32)NC[C@@H](C)NC4=O)n1 (stereo partly shown) [Compound I-234] | > 75 | < 1 | > 75 | < 1 | 
C[C@@H]1CNc2c(sc3ccc4nc(-c5ccc(N6CCN(CC7CN(c8ccc9c(c8)n(C)c(=O)n9C8CCC(=O)NC8=O)C7)CC6)cc5Cl)ccc4c23)C(=O)N1 (stereo partly shown) [Compound I-235] | > 75 | < 1 | > 75 | < 1 | 
Cc1cc(N2CCN(CC3CN(c4ccc5c(c4)n(C)c(=O)n5C4CCC(=O)NC4=O)C3)CC2)ccc1-c1ccc2c(ccc3sc4c(c32)NC[C@@H](C)NC4=O)n1 (stereo partly shown) [Compound I-236] | > 75 | < 1 | > 75 | < 1 | 
C[C@@H]1CNc2c(sc3ccc4nc(-c5ccc(N6CCN(CC7CN(c8ccc9c(c8)n(C)c(=O)n9C8CCC(=O)NC8=O)C7)CC6)cc5F)ccc4c23)C(=O)N1 (stereo partly shown) [Compound I-237] | > 75 | < 1 | > 75 | < 1 | 
COc1cc(-c2ccc3c(ccc4sc5c(c43)NC[C@@H](C)NC5=O)n2)cc(N2CCN(CC3CCN(c4ccc5c(c4)n(C)c(=O)n5C4CCC(=O)NC4=O)CC3)CC2)c1 (stereo partly shown) [Compound I-239] | > 75 | < 1 | > 75 | < 1 | 
C[C@@H]1CNc2c(sc3ccc4nc(-c5cc(C#N)cc(N6CCN(CC7CCN(c8ccc9c(c8)n(C)c(=O)n9C8CCC(=O)NC8=O)CC7)CC6)c5)ccc4c23)C(=O)N1 (stereo partly shown) [Compound I-240] | > 75 | < 1 | > 75 | < 1 | 
Cn1c(=O)n(C2CCC(=O)NC2=O)c2cccc(CCCN3CCN(c4ccc(-c5cc(-c6cc7c([nH]6)C6(CC6)CNC7=O)ccn5)cc4)CC3)c21 (stereo not shown) [Compound I-241] | 50 to 75 | 1 to 10 | > 75 | 1 to 10 | 

— US20230135894A1, “MK2 DEGRADERS AND USES THEREOF” (Kymera Therapeutics, Inc., priority 2021, published 2023)
